Results on 44 molecules are retold here after patent publication US9868737B2, “Pyridino[1,2-A]pyrimidone analogue used as MTOR/P13K inhibitor” (CISEN PHARMACEUTICAL CO., LTD., priority 2014, dated 2018).

Read-outs that look alike come from different tables or passages of the source.

For orientation: inhibition means the relative decrease from the control value, in per cent.

One test has as its system MCF-7 cells. In words: In vitro test of cell activity (MCF-7 cells, insulin stimulation, ELISA-One fluorescence). Type of test: cell-based. Particulars: for inhibition at 0.25 µM: conc. 0.25 μM; for inhibition at 0.5 µM: conc. 0.5 μM. The method, boiled down: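 Fluorescence ELISA-One read-out on cell lysates, antibody-captured 1 h at room temperature. Before lysis, MCF-7 cells (2.5×10^4/well) were pretreated 2 h with compound in serum-free medium, single dose for screening or a dilution series for IC50, then stimulated 30 min with insulin ([…] final).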
(In general: ELISA stands for enzyme-linked immunosorbent assay.)

Another test concerns the target T1, PI3K (p110α) kinase (Homo sapiens, UniProt P42336).
T1 construct: made in house
Put plainly: PI3K (p110α) kinase assay (PI3K HTRF Assay). Type of test: biochemical. To be noted: in vitro enzyme activity assay, 10 μM PIP2, read-out: PI3K (p110α) enzyme activity_IC50. The source says:
Conclusion: The compounds of the present invention have significant inhibitory effect on mTOR/PI3K. Example In Vitro Enzyme Activity Assay 1. The experimental procedures and methods of PI3K (p110α) kinase assay: 1) Experimental Objective
The objective was to evaluate the inhibitory effect of the subject samples on PI3K (p110α) kinase activity at molecular level.
PerkinElmer Envision 2104 Multilabel Reader.
PI 3-Kinase HTRF Assay (384 wells) was purchased from Upstate (Millipore) company: PI3K (p110α) kinase was made in our lab.
c) Experimental procedures
Each solution was prepared according to the instructions provided in the Kinase PI 3-Kinase HTRF Assay. The kinase reaction was carried out in white 384-well plates (Proxiplate-384 plus), 0.5 μl of DMSO (the concentration was consistent with the highest concentration of DMSO for the test compounds) was added to each of the two control wells with and without enzyme, and then 0.5 μl of a series of different concentrations of the test compounds was added to each well to be tested. The kinase reaction liquid (10 μM substrate PIP2, 0.5 ng PI3K (p110α)) was added to the control well containing enzyme and the test wells, while only working reaction liquid (10 μM substrate PIP2) was added to the control well without enzyme, and finally, 5 μM ATP working reaction liquid was added to activate the reaction. After the reaction was carried out at room temperature for 30 min, the stop solution was added to each well to terminate the kinase reaction. After the mixture was fully mixed, the detection liquid was added to each well and fully mixed. The plate was sealed with Parafilm and placed in the dark. After incubated overnight, the mixture was detected.
The IC50 value was calculated through the GraphPad software after plotting the relative inhibitory rate versus concentration.

Where [1] appears, read: Homo sapiens, MCF7, MCF-7 cells, read-out: IC50 p-AKT.
Where [2] appears, read: Homo sapiens, MCF7, MCF-7 cells, read-out: % inhibition AKT.
Setting [3] is: Homo sapiens, MCF7, MCF-7 cells, read-out: % inhibition p70s6k.

T1 sequence (P42336 whole entry): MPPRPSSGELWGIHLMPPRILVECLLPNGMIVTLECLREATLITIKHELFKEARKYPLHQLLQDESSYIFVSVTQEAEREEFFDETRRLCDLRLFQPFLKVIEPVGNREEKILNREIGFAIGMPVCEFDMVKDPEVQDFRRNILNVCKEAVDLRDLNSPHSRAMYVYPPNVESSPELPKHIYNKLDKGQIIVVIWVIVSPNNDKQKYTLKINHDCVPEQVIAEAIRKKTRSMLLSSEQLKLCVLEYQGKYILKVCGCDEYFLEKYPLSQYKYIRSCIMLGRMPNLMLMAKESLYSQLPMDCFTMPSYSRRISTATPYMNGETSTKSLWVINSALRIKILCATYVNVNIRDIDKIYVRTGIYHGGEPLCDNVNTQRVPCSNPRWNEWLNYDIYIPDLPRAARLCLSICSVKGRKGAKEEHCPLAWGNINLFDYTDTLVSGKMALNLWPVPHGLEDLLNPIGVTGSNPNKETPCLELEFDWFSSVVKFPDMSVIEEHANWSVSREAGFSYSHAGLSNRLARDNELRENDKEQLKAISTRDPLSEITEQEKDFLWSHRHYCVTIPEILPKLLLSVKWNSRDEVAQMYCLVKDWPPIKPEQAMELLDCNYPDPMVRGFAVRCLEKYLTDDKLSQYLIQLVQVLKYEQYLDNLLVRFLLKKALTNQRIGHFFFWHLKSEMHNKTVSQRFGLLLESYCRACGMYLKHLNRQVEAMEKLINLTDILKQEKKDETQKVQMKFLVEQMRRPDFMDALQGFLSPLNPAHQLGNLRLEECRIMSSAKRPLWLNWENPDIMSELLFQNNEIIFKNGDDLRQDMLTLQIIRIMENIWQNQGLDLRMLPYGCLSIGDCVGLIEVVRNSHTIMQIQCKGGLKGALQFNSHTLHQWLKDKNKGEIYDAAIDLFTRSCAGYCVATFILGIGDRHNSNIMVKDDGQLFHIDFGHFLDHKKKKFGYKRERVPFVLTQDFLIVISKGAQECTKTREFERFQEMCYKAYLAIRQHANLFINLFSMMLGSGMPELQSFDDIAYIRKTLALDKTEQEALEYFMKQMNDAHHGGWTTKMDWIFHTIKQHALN

Regarding `COc1ncc(-c2ccc3ncc(OCCOC4CC4)c(=O)n3c2)cc1NS(=O)(=O)c1sc(C)nc1C` [compound 204], the IC50 with MCF-7 cells (setting [1]) is at most 0.05 µM.
On the same count and under the same terms, in the case of `COCCOc1cnc2ccc(-c3ccc(OC)c(NS(=O)(=O)c4ccc(F)cc4F)c3)cn2c1=O` [compound 205] it was 0.05 to 0.1 µM; in that of `COc1ncc(-c2ccc3ncc(OC4CCC(OC)CC4)c(=O)n3c2)cc1NS(=O)(=O)c1sc(C)nc1C` (centres unmarked) [compound 207], 0.05 to 0.1 µM.
`COc1ncc(-c2ccc3ncc(OC4CCC(OC)CC4)c(=O)n3c2)cc1NS(=O)(=O)c1sc(C)nc1C` (centres unmarked) [compound 208]: the IC50 in the test with MCF-7 cells (MCF-7 cells, read-out: IC50 p-AKT) is at most 0.05 µM.
As to `COc1ncc(-c2ccc3ncc(OCC(C)(C)OC)c(=O)n3c2)cc1NS(=O)(=O)c1sc(C)nc1C` [compound 209], in the test on MCF-7 cells (setting [1]), the IC50 was at most 0.05 µM.
On the same count and under the same terms, for `COCCOc1cnc2ccc(-c3cnc(OC)c(NS(=O)(=O)C4CCCCC4)c3)cn2c1=O` [compound 212] the value was over 0.25 µM; for `COCCOc1cnc2ccc(-c3cnc(OC)c(NS(=O)(=O)c4ccc(F)cc4Cl)c3)cn2c1=O` [compound 213], 0.05 to 0.1 µM.
Still for that read-out and setting: for `COc1ncc(-c2ccc3ncc(OCC4COC4)c(=O)n3c2)cc1NS(=O)(=O)c1ccc(F)cc1Cl` [compound 214] the value was at most 0.05 µM; for `CNc1ncc(-c2ccc3ncc(OCCOC)c(=O)n3c2)cc1NS(=O)(=O)c1ccc(F)cc1F` [compound 215], over 0.25 µM.
`COc1ncc(-c2ccc3ncc(-n4ccc(C)n4)c(=O)n3c2)cc1NS(=O)(=O)c1ccc(F)cc1F` [compound 216, 2,4-difluoro-N-(2-methoxy-5-(3-(3-methyl-1H-pyrazol-1-yl)-4-oxo-4H-pyrido[1,2-a]pyrimidin-7-yl)pyridin-3-yl)benzsulfamide]: the inhibition at 0.25 µM in the test with MCF-7 cells (setting [2]) was 34.1%; in the test with MCF-7 cells (setting [3]), 31%.
The matching figures for `COc1ncc(-c2ccc3ncc(-n4ccc(C)n4)c(=O)n3c2)cc1NS(=O)(=O)c1ccc(Cl)s1` [compound 217]: 54% and 67.7%.
As for `COc1ncc(-c2ccc3ncc(-n4ccc(C)n4)c(=O)n3c2)cc1NS(=O)(=O)c1sc(C)nc1C` [compound 218], the results for the inhibition at 0.25 µM in the test on MCF-7 cells (setting [2]) and with MCF-7 cells (setting [3]) were 85.2% and 85%, respectively. Further, the IC50 with MCF-7 cells (setting [1]) lay in the range of 0.1 to 0.25 µM; in the test on MCF-7 cells (Homo sapiens, MCF7, MCF-7 cells, read-out: IC50 p-p70S6K), 0.1 to 0.25 µM.
Regarding `COc1ncc(-c2ccc3ncc(-n4ccc(C)n4)c(=O)n3c2)cc1NS(=O)(=O)c1ccc(F)cc1Cl` [compound 219], the figures for the inhibition at 0.25 µM in the test on MCF-7 cells (setting [2]) and in the test with MCF-7 cells (setting [3]) were 41.7% and 13.4%, respectively.
Regarding `COc1ncc(-c2ccc3ncc(-n4ccc(C)n4)c(=O)n3c2)cc1NS(=O)(=O)c1ccccc1Cl` [compound 220], the inhibition at 0.25 µM with MCF-7 cells (setting [2]) came to 51.2%; in the test on MCF-7 cells (setting [3]), 11%.
For `COc1ncc(-c2ccc3nc(C)cc(=O)n3c2)cc1NS(=O)(=O)c1ccc(F)cc1F` [compound 221, 2,4-difluoro-N-(2-methoxy-5-(2-methyl-4-oxo-4H-pyrido[1,2-a]pyrimidin-7-yl)pyridin-3-yl)benzsulfamide], in that order: -42% and 6.8%.
With `COc1ncc(-c2ccc3nc(C)cc(=O)n3c2)cc1NS(=O)(=O)c1ccc(F)cc1Cl` [compound 222], the inhibition at 0.25 µM was -26.7% in the test with MCF-7 cells (setting [2]) and 2% in the test on MCF-7 cells (setting [3]).
On to `COc1ncc(-c2ccc3nc(C)cc(=O)n3c2)cc1NS(=O)(=O)c1ccc(C(F)(F)F)cc1` [compound 223], for which the inhibition at 0.25 µM in the test on MCF-7 cells (setting [2]) was 17.9%; in the test on MCF-7 cells (setting [3]), -1.5%.
Turning to `COc1ncc(-c2ccc3nc(C)cc(=O)n3c2)cc1NS(=O)(=O)c1cc(F)ccc1F` [compound 226], the inhibition at 0.5 µM came out at 14.8% with MCF-7 cells (setting [2]) and 4.6% in the test on MCF-7 cells (setting [3]).
For `COc1ncc(-c2ccc3nc(C)cc(=O)n3c2)cc1NS(=O)(=O)c1ccc(F)cc1C` [compound 229], in that order: 31.7% and 1.4%.
With `COc1ncc(-c2ccc3nc(C)cc(=O)n3c2)cc1NS(=O)(=O)c1ccccc1F` [compound 230], the inhibition at 0.5 µM with MCF-7 cells (setting [2]) was 43.5%; in the test with MCF-7 cells (setting [3]) it was 8.8%.
As to `COCCOc1ncc(-c2ccc3ncc(Cl)c(=O)n3c2)cc1NS(=O)(=O)c1ccc(F)cc1F` [compound 231, N-[5-(3-chloro-4-oxo-4H-pyrido[1,2-a]pyrimidin-7-yl)-2-(2-methoxy-ethoxy)-pyridin-3-yl]-2,4-difluorobenzsulfamide], in the test with MCF-7 cells (setting [1]), the IC50 was over 0.25 µM.
With `COCCCOc1ncc(-c2ccc3ncc(Cl)c(=O)n3c2)cc1NS(=O)(=O)c1ccc(F)cc1F` [compound 232], the IC50 in the test on MCF-7 cells (setting [1]) was over 0.25 µM.
With `COc1ncc(-c2ccc3nn(C)c(=O)n3c2)cc1NS(=O)(=O)c1ccc(F)cc1F` [compound 234], in the test with MCF-7 cells (setting [1]), the IC50 is over 0.25 µM.
Same read-out and setting: for `COc1ncc(-c2ccc3n[nH]c(=O)n3c2)cc1NS(=O)(=O)c1ccc(F)cc1F` [compound 235] the value was 0.1 to 0.25 µM; for `COc1ncc(-c2ccc3nc(N)cc(=O)n3c2)cc1NS(=O)(=O)c1sc(C)nc1C` [compound 236, N-(5-(2-amino-4-oxo-4H-pyrido[1,2-a]pyrimidin-7-yl)-2-methoxypyridin-3-yl)-2,4-dimethylthiazolyl-5-sulfamide], 0.05 to 0.1 µM.
The same measure, in the same setting: for `COCc1cnc2ccc(-c3cnc(OC)c(NS(=O)(=O)c4sc(C)nc4C)c3)cn2c1=O` [compound 239, N-(2-methoxy-5-(3-(methoxymethyl)-4-oxo-4H-pyrido[1,2-a]pyrimidin-7-yl)pyridin-3-yl)-2,4-dimethylthiazolyl-5-sulfamide] the value was at most 0.05 µM.
Take `COc1ncc(-c2ccc3ncc(OCCOCC(F)(F)F)c(=O)n3c2)cc1NS(=O)(=O)c1ccc(F)cc1Cl` [compound 242]: the results for the IC50 in the test with MCF-7 cells (setting [1]) and at PI3K (p110α) kinase were 0.1 to 0.25 µM and at most 0.001 µM, respectively.
Consider `COc1ncc(-c2ccc3ncc(OCCCF)c(=O)n3c2)cc1NS(=O)(=O)c1ccc(F)cc1Cl` [compound 243], for which the values for the IC50 in the test with MCF-7 cells (setting [1]) and on PI3K (p110α) kinase were at most 0.05 µM and at most 0.001 µM, respectively.
For `COc1ncc(-c2ccc3ncc(OCC4COC4)c(=O)n3c2)cc1NS(=O)(=O)c1cccc(C)c1` [compound 248], the IC50 in the test with MCF-7 cells (setting [1]) was 0.05 to 0.1 µM.
Still for that read-out and setting: in the case of `COCCOc1cnc2ccc(-c3cnc(OC)c(NS(=O)(=O)c4ccccc4F)c3)cn2c1=O` [compound 254] it was 0.05 to 0.1 µM.
`COc1ncc(-c2ccc3ncc(OCC4COC4)c(=O)n3c2)cc1NS(=O)(=O)c1ccccc1F` [compound 256]: the IC50 in the test on MCF-7 cells (setting [1]) is at most 0.05 µM.
For the molecule `COCCOc1cnc2ccc(-c3cnc(OC)c(NS(=O)(=O)c4cc(C)c(Cl)cc4Cl)c3)cn2c1=O` [compound 258], the IC50 on PI3K (p110α) kinase was 0.001 to 0.01 µM.
Regarding `COCCOc1cnc2ccc(-c3cnc(OC)c(NS(=O)(=O)c4cc(F)c(F)cc4Cl)c3)cn2c1=O` [compound 266], in the test on MCF-7 cells (setting [1]), the IC50 was in the range of 0.1 to 0.25 µM.
`COCCOc1cnc2ccc(-c3cnc(OC)c(NS(=O)(=O)c4cc(C)c(Cl)cc4F)c3)cn2c1=O` [compound 269]: on PI3K (p110α) kinase, the IC50 was in the range of 0.001 to 0.01 µM.
Regarding `COCCOc1cnc2ccc(-c3cnc(OC)c(NS(=O)(=O)c4cc(Cl)ccc4F)c3)cn2c1=O` [compound 272], the IC50 in the test with MCF-7 cells (setting [1]) is at most 0.05 µM.
The same measure, in the same setting: for `COCCOc1cnc2ccc(-c3cnc(OC)c(NS(=O)(=O)c4cc(Cl)c(F)cc4F)c3)cn2c1=O` [compound 273] the value was 0.1 to 0.25 µM.
On the same count and under the same terms, in the case of `COCCOc1cnc2ccc(-c3cnc(OC)c(NS(=O)(=O)c4ccc(F)c(F)c4F)c3)cn2c1=O` [compound 274] it was 0.05 to 0.1 µM; in that of `COCCOc1cnc2ccc(-c3cnc(OC)c(NS(=O)(=O)c4ccc(F)cc4C(F)(F)F)c3)cn2c1=O` [compound 278], at most 0.05 µM.
Still for that read-out and setting: for `COCCOc1cnc2ccc(-c3cnc(OC)c(NS(=O)(=O)c4ccc(F)cc4Br)c3)cn2c1=O` [compound 279] the value was at most 0.05 µM.
On to `CCc1cc(F)ccc1S(=O)(=O)Nc1cc(-c2ccc3ncc(OCCOC)c(=O)n3c2)cnc1OC` [compound 280], for which, in the test with MCF-7 cells (setting [1]), the IC50 is at most 0.05 µM.
Still for that read-out and setting: in the case of `CCc1ccc(S(=O)(=O)Nc2cc(-c3ccc4ncc(OCCOC)c(=O)n4c3)cnc2OC)c(F)c1` [compound 281] it was at most 0.05 µM.
With `COCCOc1cnc2ccc(-c3cnc(OC)c(NS(=O)(=O)c4cnc(C)cc4C)c3)cn2c1=O` [compound 282], at PI3K (p110α) kinase, the IC50 is at most 0.001 µM.
On the same count and under the same terms, in the case of `COCCOc1cnc2ccc(-c3cnc(OC)c(NS(=O)(=O)n4nc(C)cc4C)c3)cn2c1=O` [compound 283] it was 0.001 to 0.01 µM.
Still for that read-out and setting: for `COCCOc1cnc2ccc(-c3cnc(OC)c(NS(=O)(=O)c4ccc(F)cc4C4CC4)c3)cn2c1=O` [compound 284] the value was 0.001 to 0.01 µM.
